Reference: ChEMBL document CHEMBL4376849, “Harmicines - harmine and cinnamic acid hybrids as novel antiplasmodial hits” (Eur J Med Chem, 2020)
pIC50: −log10 of the molar value.

Tests used:
Plasmodium falciparum [1] = experiment: Antiplasmodial activity against chloroquine-sensitive Plasmodium falciparum 3D7 erythrocytic stage measured after 3 days by HRP2 assay; format: functional, organism-based; conditions: 3D7, 72 h
Plasmodium falciparum [2] = experiment: Antiplasmodial activity against chloroquine-resistant Plasmodium falciparum Dd2 erythrocytic stage measured after 3 days by HRP2 assay; format: functional, organism-based; conditions: Dd2, 72 h
HepG2 = experiment: Cytotoxicity against human HepG2 cells measured after 24 hrs by neutral red assay; format: cell-based; conditions: HepG2, 24 h
[3] = Selectivity index, ratio of IC50 for human HepG2 cells to IC50 for Plasmodium falciparum 3D7; format: toxicity; conditions: read-out: Ratio IC50
Plasmodium berghei = experiment: Antiplasmodial activity against liver stage luciferase expressing Plasmodium berghei sporozoites infected in human Huh7 cells preincubated with host cells for 1 hr followed by plasmodium infection by bioluminescence assay; format: functional, organism-based; conditions: Huh-7

SMILES	pIC50 (Plasmodium falciparum [1])	pIC50 (Plasmodium falciparum [2])	pIC50 (HepG2)	selectivity ratio [3]	pIC50 (Plasmodium berghei)
Cc1nccc2c1[nH]c1cc(OCc3cn(C/C=C/c4ccc(F)cc4)nn3)ccc12	6.70	6.08	5.66	11	
Cc1nccc2c3ccc(OCc4cn(C/C=C/c5ccc(Cl)cc5)nn4)cc3n(Cc3cn(C/C=C/c4ccc(Cl)cc4)nn3)c12	6.60	5.48	4.54	116	
COc1ccc2c3ccnc(C)c3n(Cc3cn(C/C=C/c4ccc5c(c4)OCO5)nn3)c2c1	6.30	5.80	5.06	18	
C/C(=C\c1ccccc1)Cn1cc(COc2ccc3c4ccnc(C)c4n(Cc4cn(C/C(C)=C/c5ccccc5)nn4)c3c2)nn1	5.87	5.40	4.60	19	
C/C(=C\c1ccccc1)Cn1cc(COc2ccc3c(c2)[nH]c2c(C)nccc23)nn1	6.48	5.51	4.60	77	6.18
Cc1nccc2c1[nH]c1cc(OCc3cn(C/C=C/c4ccccc4)nn3)ccc12	6.59	5.96	5.01	37	
COc1ccc2c3ccnc(C)c3n(Cc3cn(C/C=C/c4ccc(Cl)cc4)nn3)c2c1	6.36	5.73	< 3.60	> 568	5.95
Cc1nccc2c1[nH]c1cc(OCc3cn(C/C=C/c4ccc(F)c(F)c4)nn3)ccc12	6.47	6.00	6.13	2	
Cc1nccc2c1[nH]c1cc(OCc3cn(C/C=C/c4cccc(F)c4)nn3)ccc12	6.70	5.92	5.51	16	
COc1ccc2c3ccnc(C)c3n(Cc3cn(C/C(C)=C/c4ccccc4)nn3)c2c1	6.11	5.55	4.93	15	
COc1ccc2c3ccnc(C)c3n(Cc3cn(C/C=C/c4cccc(Br)c4)nn3)c2c1	6.25	5.65	4.25	101	5.96
COc1ccc(/C=C/Cn2cc(COc3ccc4c5ccnc(C)c5n(Cc5cn(C/C=C/c6ccc(OC)cc6)nn5)c4c3)nn2)cc1	6.89	6.80	4.36	333	6.40
COc1ccc2c3ccnc(C)c3n(Cc3cn(C/C=C/c4ccc(F)cc4)nn3)c2c1	6.06	5.66	5.05	10	
Cc1nccc2c3ccc(OCc4cn(C/C=C/c5ccccc5)nn4)cc3n(Cc3cn(C/C=C/c4ccccc4)nn3)c12	6.25	5.80	5.07	15	
Cc1nccc2c3ccc(OCc4cn(C/C=C/c5cccc(F)c5)nn4)cc3n(Cc3cn(C/C=C/c4cccc(F)c4)nn3)c12		5.49	5.22	2	
COc1ccc2c3ccnc(C)c3n(Cc3cn(C/C=C/c4ccccc4)nn3)c2c1	5.90	4.62	< 3.60	> 198	5.58
COc1ccc2c3ccnc(C)c3n(Cc3cn(C/C=C/c4cccc(F)c4)nn3)c2c1	6.05	5.57	< 3.60	> 281	
Cc1nccc2c1[nH]c1cc(OCc3cn(C/C=C/c4ccc5c(c4)OCO5)nn3)ccc12	6.80	6.33	5.25	35	
Cc1nccc2c1[nH]c1cc(OCc3cn(C/C=C/c4ccc(Cl)cc4)nn3)ccc12	6.82	6.16	5.06	59	
Cc1nccc2c3ccc(OCc4cn(C/C=C/c5ccc(F)cc5)nn4)cc3n(Cc3cn(C/C=C/c4ccc(F)cc4)nn3)c12	6.21	5.10	4.92	20	
Cc1nccc2c3ccc(OCc4cn(C/C=C/c5ccc(F)c(F)c5)nn4)cc3n(Cc3cn(C/C=C/c4ccc(F)c(F)c4)nn3)c12	5.97	4.75	4.96	6	
COc1ccc(/C=C/Cn2cc(COc3ccc4c(c3)[nH]c3c(C)nccc34)nn2)cc1	6.37	6.16	5.27	12	
COc1ccc2c3ccnc(C)c3n(Cc3cn(C/C=C/c4ccc(F)c(F)c4)nn3)c2c1	6.19	5.59	5.01	15	
Cc1nccc2c1[nH]c1cc(OCc3cn(C/C=C/c4cccc(Br)c4)nn3)ccc12	6.89	6.34	5.54	22	
COc1ccc(/C=C/Cn2cc(Cn3c4cc(OC)ccc4c4ccnc(C)c43)nn2)cc1	6.21	4.78	< 3.92	> 197	
Cc1nccc2c3ccc(OCc4cn(C/C=C/c5ccc6c(c5)OCO6)nn4)cc3n(Cc3cn(C/C=C/c4ccc5c(c4)OCO5)nn3)c12	6.36	6.19	4.44	82	
COc1ccc2c(c1)[nH]c1c(C)nccc12 [HARMINE]		< 4.56	< 3.60		
